# In paper PMC4714714 (Journal of medicinal chemistry, 2015):
# Where two headings read alike, the source gives them in different places.
# Legend:
# [1] = tested on: KB human nasopharyngeal carcinoma cells (FRα/PCFT/RFC); assay: Growth inhibition of KB human tumor cells; assay type: cell-based
# [2] = tested on: SKOV3 human ovarian tumor xenografts; assay: In vivo efficacy trial against SKOV3 xenografts in SCID mice; conditions: folate-deficient diet; 4 28 mg/kg, 7 16 mg/kg i.v. Q4dx3
# DHFR = target: T1, DHFR (Homo sapiens, UniProt P00374); assay: Isolated enzyme assay DHFR; assay type: biochemical; conditions: nucleoside protection and isolated enzyme assays (not shown)
# T1 sequence (P00374 1-187): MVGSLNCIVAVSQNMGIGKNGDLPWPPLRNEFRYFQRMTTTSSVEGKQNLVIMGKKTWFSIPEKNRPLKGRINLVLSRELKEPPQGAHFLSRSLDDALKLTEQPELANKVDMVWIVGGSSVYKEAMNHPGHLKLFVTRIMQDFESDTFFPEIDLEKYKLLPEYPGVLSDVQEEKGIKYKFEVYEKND
# TS = TS (Homo sapiens, UniProt P04818); assay: Isolated enzyme assay TS; assay type: biochemical; conditions: nucleoside protection and isolated enzyme assays (not shown)
# PCFT = target: T2, PCFT (Homo sapiens, UniProt Q96NT5); assay: PCFT uptake and transport kinetics in R2/PCFT4 CHO cells; assay type: cell-based
# T2 sequence (Q96NT5 1-459): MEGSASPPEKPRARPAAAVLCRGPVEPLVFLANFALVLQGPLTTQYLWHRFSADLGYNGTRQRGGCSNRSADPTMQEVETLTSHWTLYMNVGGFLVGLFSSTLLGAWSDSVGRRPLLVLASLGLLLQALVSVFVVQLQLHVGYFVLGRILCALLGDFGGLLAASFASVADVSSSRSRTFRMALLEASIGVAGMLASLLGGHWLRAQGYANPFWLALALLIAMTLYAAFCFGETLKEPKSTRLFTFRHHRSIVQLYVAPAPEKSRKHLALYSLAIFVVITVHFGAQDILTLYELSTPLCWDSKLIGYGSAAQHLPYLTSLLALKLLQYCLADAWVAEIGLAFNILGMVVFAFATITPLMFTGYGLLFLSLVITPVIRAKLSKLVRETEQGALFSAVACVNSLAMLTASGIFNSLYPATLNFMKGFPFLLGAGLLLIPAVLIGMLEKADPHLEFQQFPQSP
# FRα = FRα (Homo sapiens, UniProt P15328); assay: [3H]folic acid competition binding to FRα on RT16 CHO cells
# [3] = target: T3, recombinant human GARFTase (Homo sapiens, UniProt P22102); assay: In vitro GARFTase inhibition assay; assay type: biochemical; conditions: from Ki values
# T3 sequence (P22102 810-1010 limits assumed): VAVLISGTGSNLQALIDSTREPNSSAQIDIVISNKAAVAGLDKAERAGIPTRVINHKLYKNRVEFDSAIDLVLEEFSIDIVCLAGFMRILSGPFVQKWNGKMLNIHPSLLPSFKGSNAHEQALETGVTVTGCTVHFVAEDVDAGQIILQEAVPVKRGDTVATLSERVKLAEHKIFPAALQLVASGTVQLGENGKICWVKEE
# FRβ = FRβ (Homo sapiens, UniProt P14207); assay: [3H]folic acid competition binding to FRβ on D4 CHO cells
# [4] = read-out: IC50 for inhibition of proliferation, KB
# TS, sequence (P04818 whole entry): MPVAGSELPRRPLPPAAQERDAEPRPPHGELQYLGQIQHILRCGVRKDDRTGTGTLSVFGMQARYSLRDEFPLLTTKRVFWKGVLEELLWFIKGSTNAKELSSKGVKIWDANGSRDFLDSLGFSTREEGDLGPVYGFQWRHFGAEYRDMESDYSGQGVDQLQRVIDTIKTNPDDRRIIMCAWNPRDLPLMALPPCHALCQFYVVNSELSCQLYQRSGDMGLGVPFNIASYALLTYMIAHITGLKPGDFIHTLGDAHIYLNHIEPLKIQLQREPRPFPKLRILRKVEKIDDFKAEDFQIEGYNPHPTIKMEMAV
# FRα, sequence (P15328 25-257): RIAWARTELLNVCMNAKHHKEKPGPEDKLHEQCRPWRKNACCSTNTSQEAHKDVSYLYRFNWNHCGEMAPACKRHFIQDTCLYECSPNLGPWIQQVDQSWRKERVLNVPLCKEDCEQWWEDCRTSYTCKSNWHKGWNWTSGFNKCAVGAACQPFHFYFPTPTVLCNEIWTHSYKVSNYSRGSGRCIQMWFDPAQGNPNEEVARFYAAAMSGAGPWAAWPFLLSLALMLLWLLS
# FRβ, sequence (P14207 17-255): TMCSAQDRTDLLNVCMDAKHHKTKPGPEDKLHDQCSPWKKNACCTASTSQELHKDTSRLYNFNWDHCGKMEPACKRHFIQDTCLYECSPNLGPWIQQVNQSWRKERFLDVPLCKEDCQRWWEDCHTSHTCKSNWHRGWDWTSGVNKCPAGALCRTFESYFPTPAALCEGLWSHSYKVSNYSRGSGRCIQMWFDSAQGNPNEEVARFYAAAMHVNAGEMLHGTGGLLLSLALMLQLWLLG
SMILES,"IC50 [1, 4] [nM]",tumor growth delay (T–C value) [2] [days],inhibition of DHFR (DHFR),inhibition of TS (TS),also measured
"C#CCC(Cc1cnc2nc(N)nc(N)c2n1)c1ccc(C(=O)N[C@@H](CCC(=O)O)C(=O)O)cc1 (stereo partly drawn) [PDX, N-(4-{1-[(2,4-diaminopteridin-6-yl)methyl]but-3-yn-1-yl}-benzoyl)-L-glutamic acid]",0.47,–,–,–,"IC50 ([1]; read-out: IC50 for inhibition of proliferation, KB (+FA)): 1.94 nM"
Nc1nc2[nH]c(CCCc3ccc(C(=O)N[C@@H](CCC(=O)O)C(=O)O)s3)cc2c(=O)[nH]1 [compound 4],0.26,13,–,–,–
"Nc1nc(N)c2c(CCCc3csc(C(=O)N[C@@H](CCC(=O)O)C(=O)O)c3)coc2n1 [compound 6, (S)-2-({4-[3-(2,4-Diamino-furo[2,3-d]pyrimidin-5-yl)-propyl]-thiophene-2 carbonyl}-amino)-pentanedioic Acid]",–,–,Neither 6 nor 8 were potent inhibitors of DHFR or TS,Neither 6 nor 8 were potent inhibitors of DHFR or TS,–
"Nc1nc2[nH]c(CCCc3cc(C(=O)N[C@@H](CCC(=O)O)C(=O)O)cs3)cc2c(=O)[nH]1 [compound 7, (S)-2-({5-[3-(2-Amino-4-oxo-4,7-dihydro-3H-pyrrolo[2,3-d]-pyrimidin-6-yl)-propyl]-thiophene-3-carbonyl}-amino)-pentanedioic Acid]",–,13,–,–,"PCFT uptake of [3H]7 in excess of that for [3H]PMX (PCFT; 0.5 μM, pH 5.5, 37 °C): ~ 40%; Vmax, PCFT transport, pH 5.5 (PCFT; pH 5.5): 24.62 (±6.60) pmol/mg/min; Vmax, PCFT transport, pH 6.8 (PCFT; pH 6.8): 3.0 (±0.3) pmol/mg/min; relative binding affinity to FRα, % of that for folic acid (FRα): approximately 60 % of that for folic acid; fold more potent as inhibitor of human GARFTase than 4 [3]: ~ 7 fold; fold more potent as inhibitor of human GARFTase than PMX [3]: > 100 fold; relative binding affinity to FRβ, % of the affinity for folic acid (FRβ): 35–40 % of the affinity for folic acid"
"Nc1nc(N)c2c(CCCc3cc(C(=O)N[C@@H](CCC(=O)O)C(=O)O)cs3)coc2n1 [compound 8, (S)-2-({5-[3-(2,4-Diamino-furo[2,3-d]pyrimidin-5-yl)-propyl]-thiophene-3-carbonyl}-amino)-pentanedioic Acid]",–,–,Neither 6 nor 8 were potent inhibitors of DHFR or TS,Neither 6 nor 8 were potent inhibitors of DHFR or TS,–
